Values quoted from earlier work, collected in patent publication EP0417819A1, “Psycho-pharmacological peptides” (AKZO N.V., priority 1989, dated 1991).
“Also recorded” adds a separate entry of the source.

test system: extinction of the (active) avoidance behaviour of rats; settings: pole climbing test, state of the art, result in words

Substance | extinction of the (active) avoidance behaviour
y-endorphin (YGGFMTSEKSQTPLVTL; Beta-endorphin; UniProt P01189 237-253, looked up, fragment) [β-endorphin (1-17)] | accelerate the extinction of the avoidance behaviour
met-enkephalin (YGGFM; Met-enkephalin; UniProt P01189 237-241, looked up) [smaller peptide fragment derived from β-endorphin] | inhibit the extinction of the avoidance behaviour
β-endorphin (YGGFMTSEKSQTPLVTLFKNAIIKNAYKKGE; Beta-endorphin; UniProt P01189 237-267, looked up) [(59-89) fragments of β-LPH] | delays the extinction
a-endorphin | inhibit the extinction of the avoidance behaviour; also recorded: retarded
